Laboratory results published in patent US20170184612A1, “USE OF LEUKOCYTES AND NOVEL BIOMARKERS IN THE DIAGNOSIS, CONFIRMATION, AND TREATMENT OF A NEUROLOGICAL DISORDER” (The Trustees of Columbia University in the City of New York, priority 2014, published 2017).

Key:
[1] = tested on: peripheral blood mononuclear cells (PBMC), T cells; experiment: ELISpot assay, gamma-interferon release (SFC) after stimulation with a-synuclein epitope pools; format: cell-based, human; conditions: for Pool +: IFNg, Pool Stimulated, number of donors with a positive response, Donors tested 1
Outline: (§1)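 PBMC from PD patients and age-matched controls were isolated by Ficoll gradient centrifugation and stimulated with pools of 122 candidate class I/II and phospho-S129 peptides, with responsive pools deconvoluted to single epitopes. After 22 h at 37 C, spot-forming cells were detected colorimetrically; ≥20 SFC per million cells counted as positive.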

[2] = tested on: peripheral blood mononuclear cells (PBMC), T cells; experiment: ELISpot assay, IL-5 release (SFC) after stimulation with a-synuclein epitope pools; format: cell-based, human
Outline: as §1

[3] = Patients Summary, PD patients, of donors tested (peptide)
[4] = Patients Summary, PD patients, single peptide
[5] = number of donors positive to the single peptide, second 'Pool Stimulated' section (from r296), 12 donors tested
[6] = peptide + / donors tested (peptide), second 'Pool Stimulated' section (from r296), 12 donors tested
[7] = single peptide, second 'Pool Stimulated' section (from r296), 12 donors tested
[8] = pool 'Phospho' (phosphorylated peptides)
[9] = Patients Summary, Phospho pool peptides
[10] = Patients Summary, Phospho pool peptides, 10 donors tested
[11] = peptides of pool 'Poshpho', 8 donors tested
[12] = peptides of pool 'Poshpho', 8 donors tested, number of donors positive

Row | Substance | Pool + [1] | IFNg Peptide + (donors positive to the peptide) [1, 3] | IFNg Response Frequency [1, 4] [%] | IFNg Total SFC [1, 4] [SFC] | IFNg Peptide + [1, 5] | IFNg Response Frequency [1, 6] [%] | IFNg Total SFC [1, 7] [SFC] | IL-g Peptide + (donors positive to the peptide) [2, 3] | IL-g Response Frequency [2, 4] [%] | IL-g Total SFC [2, 4] [SFC] | IL-g Peptide + [2, 5] | IL-g Response Frequency [2, 6] [%] | IL-g Total SFC [2, 7] [SFC] | IL-g Avg SFC [2, 7] [SFC] | other results
1 | 3521.0048 (EQVTNVGGAV; listed as Homo sapiens) | 0 | 0 | 0 | 0 | 0 | 0 | 0 | 0 | 0 | 0 | 0 | 0 | 0 | – | –
2 | 3521.0049 (APQEGILEDM; listed as Homo sapiens) | 0 | 0 | 0 | 0 | 0 | 0 | 0 | 0 | 0 | 0 | 0 | 0 | 0 | – | –
3 | 3521.0051 (EEGAPQEGIL; listed as Homo sapiens) | 1 | 1 | 25 | 427 | 1 | 50 | 554 | 0 | 0 | 0 | 1 | 50 | 1028 | 1028 | IFNg Avg SFC [1, 4]: 427 SFC; IFNg Avg SFC [1, 7]: 554 SFC
4 | 3521.0054 (MPVDPDNEAY; listed as Homo sapiens) | 0 | 0 | 0 | 0 | 0 | 0 | – | 0 | 0 | 0 | 1 | 50 | 58 | 58 | –
5 | 3521.0055 (QEGILEDMPV; listed as Homo sapiens) | 0 | 0 | 0 | 0 | 0 | 0 | – | 0 | 0 | 0 | 1 | 50 | 58 | 58 | –
6 | 3521.0056 (YEMPSEEGYQ; listed as Homo sapiens) | 0 | 0 | 0 | 0 | 0 | 0 | – | 0 | 0 | 0 | 1 | 50 | 89 | 89 | Pool + [1, 8]: 0; IFNg Response Frequency [1, 9]: 0%; IFNg Total SFC [1, 9]: 0 SFC; IFNg Peptide + (donors positive to the peptide) [1, 10]: 0; IFNg Avg SFC [1, 11]: 100 SFC; IFNg Response Frequency [1, 11]: 13%; IFNg Total SFC [1, 11]: 100 SFC; IFNg Peptide + [1, 12]: 1; IL-g Response Frequency [2, 9]: 0%; IL-g Total SFC [2, 9]: 0 SFC; IL-g Peptide + (donors positive to the peptide) [2, 10]: 0; IL-g Avg SFC [2, 11]: 167 SFC; IL-g Response Frequency [2, 11]: 13%; IL-g Total SFC [2, 11]: 167 SFC; IL-g Peptide + [2, 12]: 1
7 | 3521.0057 (NEEGAPQEGI; listed as Homo sapiens) | 0 | 0 | 0 | 0 | 1 | 50 | 26.7 | 0 | 0 | 0 | 0 | 0 | 0 | – | IFNg Avg SFC [1, 7]: 26.7 SFC
8 | 3521.0058 (SEEGYQDYEP; listed as Homo sapiens) | 0 | 0 | 0 | 0 | 0 | 0 | – | 0 | 0 | 0 | 1 | 50 | 58 | 58 | Pool + [1, 8]: 1; IFNg Avg SFC [1, 9]: 107 SFC; IFNg Response Frequency [1, 9]: 20%; IFNg Total SFC [1, 9]: 213 SFC; IFNg Peptide + (donors positive to the peptide) [1, 10]: 1; IFNg Avg SFC [1, 11]: 26.7 SFC; IFNg Response Frequency [1, 11]: 13%; IFNg Total SFC [1, 11]: 26.7 SFC; IFNg Peptide + [1, 12]: 1; IL-g Avg SFC [2, 9]: 73 SFC; IL-g Response Frequency [2, 9]: 10%; IL-g Total SFC [2, 9]: 73 SFC; IL-g Peptide + (donors positive to the peptide) [2, 10]: 1; IL-g Response Frequency [2, 11]: 0%; IL-g Total SFC [2, 11]: 0 SFC; IL-g Peptide + [2, 12]: 0
9 | 3521.0059 (AEAAGKTKEG; listed as Homo sapiens) | 1 | 0 | 0 | 0 | 1 | 50 | 120 | 1 | 13 | 71 | 0 | 0 | 0 | – | IFNg Avg SFC [1, 7]: 120 SFC; IL-g Avg SFC [2, 4]: 71 SFC
10 | 3521.0061 (AATGFVKKDQ; listed as Homo sapiens) | 0 | 0 | 0 | 0 | 1 | 50 | 84 | 0 | 0 | 0 | 1 | 50 | 195 | 195 | IFNg Avg SFC [1, 7]: 84 SFC
11 | 3521.0062 (KTKKGVVHG; listed as Homo sapiens) | 0 | 1 | 17 | 113 | – | – | – | 1 | 17 | 40 | – | – | – | – | IFNg Avg SFC [1, 4]: 113 SFC; IL-g Avg SFC [2, 4]: 40 SFC
12 | 3521.0063 (GVVHGVTTV; listed as Homo sapiens) | 1 | 1 | 50 | 143 | 0 | 0 | 0 | 0 | 0 | 0 | 0 | 0 | 0 | – | IFNg Avg SFC [1, 4]: 143 SFC
13 | 3521.0064 (GVVHGVATV; listed as Homo sapiens) | 1 | 0 | 0 | 0 | 0 | 0 | 0 | 0 | 0 | 0 | 1 | 50 | 75 | 75 | –
14 | 3521.0065 (FVKKDQLGK; listed as Homo sapiens) | 0 | 0 | 0 | 0 | 0 | 0 | 0 | 0 | 0 | 0 | 0 | 0 | 0 | – | –
15 | 3521.0067 (KTKEGVVHG; listed as Homo sapiens) | 0 | 0 | 0 | 0 | – | – | – | 0 | 0 | 0 | – | – | – | – | –
16 | 3521.0068 (GVAEAPGKTK; listed as Homo sapiens) | 0 | 0 | 0 | 0 | 0 | 0 | 0 | 0 | 0 | 0 | 0 | 0 | 0 | – | –
